# Test results reported in US8507445B2, “Compositions and methods of use of targeting peptides for diagnosis and therapy of human cancer” (Board of Regents, The University of Texas System, priority 2002, dated 2013).
# System: immunoglobulins from the serum of metastatic prostate cancer patients
# Assay: Biopanning of CX6C phage library on IgGs from serum of prostate cancer patients A, B, C
# Assay type: binding, human
# Conditions: patient C
# Description: Sera was selected from patients diagnosed with androgen-dependent and androgen-independent prostate cancer. A CX6C peptide library was screened against this pool of IgGs in a two-step procedure. First, the peptide library was pre-cleared against a pool of purified IgGs from normal serum samples using Protein G affinity chromatography. This step removed peptides from the phage display library that bound to immunoglobulins from patients without prostate cancer. Next, the pre-cleared peptide library was screened against the pool of purified IgGs from the serum of prostate cancer patients. This step selected peptides binding specifically to IgGs elicited against prostate cancer.
# A 6-mer cyclic peptide (CX6C) phage display library was used for the biopanning. To select peptides specific to the serum antibodies of cancer patients, a pre-clearing stage was employed to remove non-specific peptides by pre-absorbing the peptide library onto purified IgGs from pooled normal serum (five healthy male individuals). The pre-cleared peptide library was screened onto the purified IgGs from the serum of prostate cancer patients. In brief, 10^9 transducing units (T.U.) of a CX6C cyclic peptide phage library were incubated with IgG antibodies from 50 μl of normal serum immobilized on 50 μl of protein G (Gibco BRL) for 1 hour at 4° C. This was followed by affinity selection on the immobilized IgG antibodies from prostate cancer patient serum for 2 hours at 4° C. Phage peptides specifically bound to IgGs elicited against prostate cancer were eluted with 100 μl of 0.1 M glycine buffer, pH 2.2, neutralized by the addition of 10 μl 1M Tris pH 9.0, and used to infect E. coli strain K91. Ten-fold serial dilutions of the infected solution were spread onto agar plates containing 40 μg/ml of tetracycline and grown overnight. Two hundred colonies were picked, amplified, and precipitated for a subsequent round of panning. A total of three rounds were performed. Individual phage clones were picked for PCR and the insert DNA was sequenced.
Sequence,share of the clones in round II [%],share of the clones in round III [%]
CNITQKSC,33.3,0
CNKTDKGC,16.7,0
CNWTDKTC,33.3,7

# Same assay, conditions: second and third rounds; patient A, B or C that yielded the peptide
row,Sequence,share of the clones analyzed [%]
1,CHQKPWEC,100
2,CKDRFERC,100

# System: immunoglobulins from the serum of prostate cancer patient M
# Assay: Biopanning on purified immunoglobulins from serum of prostate cancer patient M
# Assay type: binding, human
# Conditions: three rounds of panning; early stage
# Description: The methods used were similar to those described in Example 4. A subtraction protocol was used, in which IgG from a normal individual was coupled to protein G chromatography beads. A cyclic CX6C phage display library, prepared as described above, was exposed to the normal IgG's. […] Antibodies from patient M (prostate cancer patient) were attached to fresh protein G chromatograpy beads. […] This procedure was followed for three rounds of screening and targeting peptides against patient M's antibodies were obtained.
# Serum samples from the same patient were obtained from archival specimens and used to obtain targeting peptides. Patient M's serum from 1994 (early stage cancer), 1998 (intermediate stage) and 2000 (late stage) were used to obtain antibody targeting peptides as described above.
row,Sequence,"phage exhibiting the sequence / total clones, 1994 Serum"
1,CAVKSVTC,CAVKSVTC (1/22)
2,CIDMTHQC,CIDMTHQC (1/22)
3,CISSPSNC,CISSPSNC (1/22)
4,CLTSENAC,CLTSENAC (1/22)
5,CNGFMGYC,CNGFMGYC (1/22)
6,CNQSMWSC,CNQSMWSC (1/22)
7,CNSAFAGC,CNSAFAGC (1/22)
8,CQFENGTC,CQFENGTC (1/22)
9,CQNQYPEC,CQNQYPEC (1/22)
10,CRASAMVC,CRASAMVC (1/22)
11,CRDGYHHC,CRDGYHHC (1/22)
12,CSASDLSC,CSASDLSC (2/22)
13,CSTFAGSC,CSTFAGSC (1/22)
14,CSYTFAGC,CSYTFAGC (1/22)
15,CTFAGSSC,CTFAGSSC (6/22)

# Same assay, conditions: three rounds of panning; intermediate stage
row,Sequence,"phage exhibiting the sequence / total clones, 1998 Serum"
1,CFETFAGC,CFETFAGC (1/20)
2,CKNKHTTC,CKNKHTTC (1/20)
3,CNNMYAGC,CNNMYAGC (1/20)
4,CNSAFAGC,CNSAFAGC (1/20)
5,CQNQYPEC,CQNQYPEC (1/20)
6,CSKKFVTC,CSKKFVTC (3/20)
7,CTFAGSSC,CTFAGSSC (12/20)

# Same assay, conditions: three rounds of panning; late stage
row,Sequence,"phage exhibiting the sequence / total clones, 2000 Serum"
1,CFPKRVTC,CFPKRVTC (1/29)
2,CNSAFAGC,CNSAFAGC (1/29)
3,CPRSAKNC,CPRSAKNC (1/29)
4,CTFAGSSC,CTFAGSSC (26/29)

# System: DU145 xenografts
# Assay: Biopanning of X2CX14CX2 phage library in tumor-bearing mice
# Assay type: in vivo, nude mice
# Conditions: third round, 76 translated clones
# Description: DU145 prostate tumor cells were injected subcutaneously into the right fat pad of nude mice. A large phage library (X2CX14CX2) was prepared as discussed above and 10^9 phage were injected into male tumor-bearing nude mice. After 24 hr circulation, tumors were removed and phage recovered from the tumors using the bulk method disclosed above. The recovered phage were amplified, titered and reinjected into a new set of tumor bearing nude mice. The biopanning protocol was repeated for a total of three rounds. Ninety-six phage clones recovered from the third round of biopanning were selected for sequencing. Translated sequences were obtained for 76 of the 96 clones.
row,Sequence,number of times the sequence was obtained
1,ARCREDTGFMGLGSANICTD,ARCREDTGFMGLGSANICTD (1)
2,DACSRFLGERVDATAAGCSR,DACSRFLGERVDATAAGCSR (2)
3,DRCVLVRPEFGRGDARLCHS,DRCVLVRPEFGRGDARLCHS (2)
4,EGCSDIMNTAAERVTGDCSY,EGCSDIMNTAAERVTGDCSY (2)
5,GDCETNNVTKVGGITRNCVG,GDCETNNVTKVGGITRNCVG (1)
6,GNCMGLQVSELFMGPYKCRQ,GNCMGLQVSELFMGPYKCRQ (2)
7,GPCAATGVNPGDHGAAVCDQ,GPCAATGVNPGDHGAAVCDQ (1)
8,GTCPRQFFHMQEFWPSDCSR,GTCPRQFFHMQEFWPSDCSR (3)
9,GYCLTVVGGAVLTLALLCVT,GYCLTVVGGAVLTLALLCVT (1)
10,HTCWGARDVAQPSGTVRCLK,HTCWGARDVAQPSGTVRCLK (1)
11,IGCNHPSPLGSTVVPTYCFK,IGCNHPSPLGSTVVPTYCFK (3)
12,KICPVTNMWTTPSWAHKCGM,KICPVTNMWTTPSWAHKCGM (1)
13,KLCYRSSAGSELRPPEKCAY,KLCYRSSAGSELRPPEKCAY (1)
14,KSCGKYGLIVGQPFAEHCPP,KSCGKYGLIVGQPFAEHCPP (1)
15,LGCNKGRYWLSTRLSVSCAL,LGCNKGRYWLSTRLSVSCAL (1)
16,LRCPLEVDRPNRDPAFLCSQ,LRCPLEVDRPNRDPAFLCSQ (1)
17,MHCTSQTLRGTPSLAPKCSD,MHCTSQTLRGTPSLAPKCSD (1)
18,NDCSAHAQPGWDEVPPMCNQ,NDCSAHAQPGWDEVPPMCNQ (1)
19,NNCPVEGSQQNYSGATWCRA,NNCPVEGSQQNYSGATWCRA (1)
20,NQCSSLLTYQGWKRTKDCIP,NQCSSLLTYQGWKRTKDCIP (1)
21,NRCMPGFLDDADSAASPCGS,NRCMPGFLDDADSAASPCGS (1)
22,PGCVVSPFALSAQGTSVCTI,PGCVVSPFALSAQGTSVCTI (1)

row,Sequence,number of times the sequence was obtained
1,PNCDLDDIVLNPYTAGPCGT,PNCDLDDIVLNPYTAGPCGT (1)
2,PNCYSGDGEISSHIPVQCLM,PNCYSGDGEISSHIPVQCLM (1)
3,QHCVKGQFPFRESVTITCNS,QHCVKGQFPFRESVTITCNS (1)
4,RECGRTVHRYPWGSPESCER,RECGRTVHRYPWGSPESCER (2)
5,RGCTEAAGLVIGITTHQCGN,RGCTEAAGLVIGITTHQCGN (3)
6,RGCWRDSTAWHVSYPVECLA,RGCWRDSTAWHVSYPVECLA (1)
7,RSCVNSDTGVLQRGAPSCLF,RSCVNSDTGVLQRGAPSCLF (1)
8,RTCEEVRNRALEELTNFCPY,RTCEEVRNRALEELTNFCPY (1)
9,RTCQVRSNNISPRMALACVT,RTCQVRSNNISPRMALACVT (1)
10,SRCHALRSQSVSTSAGACIS,SRCHALRSQSVSTSAGACIS (1)
11,TECRGASSGSVSGAATDCRD,TECRGASSGSVSGAATDCRD (1)
12,TLCPPASMGLGREKPRLCSV,TLCPPASMGLGREKPRLCSV (1)
13,TLCRSLEHEVGLFKPRECPF,TLCRSLEHEVGLFKPRECPF (1)
14,TSCVRTGHDENLLKAAYCSS,TSCVRTGHDENLLKAAYCSS (1)
15,TTCNKSMSSQPMRDSRECHR,TTCNKSMSSQPMRDSRECHR (1)
16,VACDISAVERLPASARSCKT,VACDISAVERLPASARSCKT (1)
17,VECVMASASTDGTAAHPCKP,VECVMASASTDGTAAHPCKP (1)
18,VFCCGSYCGGVEMLASRCGH,VFCCGSYCGGVEMLASRCGH (2)
19,VRCNEAQLQDSGTVPHPCLR,VRCNEAQLQDSGTVPHPCLR (1)
20,VVCFMERQMGTDVVSPMCVN,VVCFMERQMGTDVVSPMCVN (1)
21,WVCTSASQDTRLKEPGMCIA,WVCTSASQDTRLKEPGMCIA (1)
22,YSCTRLNGTGLQNPPSACDR,YSCTRLNGTGLQNPPSACDR (1)

# System: DU145 xenografts
# Assay: Phage localization by anti-phage staining of tissues
# Assay type: in vivo, nude mice
# Conditions: 24 hour circulation
# Description: To determine the specificity of the prostate tumor targeting peptides, 10^9 phage carrying the targeting peptide sequences […] (SEQ ID NO:83) and […] (SEQ ID NO:84) were injected into nude mice bearing DU145 xenografts. After 24 hour circulation, tissue samples were obtained from tumor and control organs (kidney, brain, lung and spleen). Tissue samples were washed immediately in DMAM and fixed in 10% formalin for 48 hours at room temperature. Thin sections were stained for phage using anti-phage antibody (1:500 dilution) and detected using the DAKO LSAB+ system. […] This may be due to the tendency of spleen tissue to trap phage and other foreign particles in general as part of the reticuloendothelial system.
Sequence,"anti-phage staining of control kidney, brain or lung",anti-phage staining of normal spleen,anti-phage staining of tumor
LGCMASMLREFEGATHACTQ,No staining was observed,low level of anti-phage staining,very heavy staining
